Data as given in patent US11597724B2, “Herbicidally active 3-phenylisoxazoline-5-carboxamides of tetrahydro and dihydrofuran carboxylic acids and esters” (Bayer Aktiengesellschaft, priority 2017, dated 2023).

Columns and labels:
Format in all cases: in vivo
[1] = system: Abutilon theophrasti; assay: Pre-emergence herbicidal activity against ABUTH; details: dosage 80 g/ha
From the text: (§1) 1. Pre-Emergence Herbicidal Action and Crop Plant Compatibility Seeds of monocotyledonous and dicotyledonous weed plants and crop plants are placed in plastic or wood fiber pots and covered with soil. The compounds of the invention, formulated in the form of wettable powders (WP) or as emulsion concentrates (EC), are then applied onto the surface of the covering soil as aqueous suspension or emulsion with addition of 0.5% additive at a water application rate of 600 l/ha (converted). After the treatment, the pots are placed in a greenhouse and kept under good growth conditions for the trial plants. After about 3 weeks, the effect of the preparations is scored visually in comparison with untreated controls as percentages. For example, 100% activity=the plants have died, 0% activity=like control plants. ABUTH: Abutilon theophrasti ALOMY: Alopecurus myosuroides

[2] = system: Alopecurus myosuroides; assay: Post-emergence herbicidal activity against ALOMY; details: Alopecurus myosuroides, 504 h, dosage 320 g/ha, rated about 3 weeks after treatment
Protocol: (§2) ABUTH: Abutilon theophrasti ALOMY: Alopecurus myosuroides 2. Post-Emergence Herbicidal Action and Crop Plant Compatibility Seeds of monocotyledonous and dicotyledonous weeds and crop plants are placed in sandy loam in plastic or wood-fiber pots, covered with soil and cultivated in a greenhouse under controlled growth conditions. 2 to 3 weeks after sowing, the test plants are treated at the one-leaf stage. The compounds of the invention, formulated in the form of wettable powders (WP) or as emulsion concentrates (EC), are then sprayed onto the green parts of the plants as aqueous suspension or emulsion with addition of 0.5% additive at a water application rate of 600 l/ha (converted). After the test plants had been kept in the greenhouse under optimum growth conditions for about 3 weeks, the activity of the preparations is rated visually in comparison to untreated controls. For example, 100% activity=the plants have died, 0% activity=like control plants.

[3] = system: Echinochloa crus-galli; assay: Post-emergence herbicidal activity against ECHCG; details: Echinochloa crus-galli, 504 h, dosage 320 g/ha, rated about 3 weeks after treatment
Protocol: as §2, with “ECHCG: Echinochloa crus-galli HORMU: Hordeum murinum” for “ABUTH: Abutilon theophrasti ALOMY: Alopecurus myosuroides”

[4] = system: Setaria viridis; assay: Post-emergence herbicidal activity against SETVI; details: Setaria viridis, 504 h, dosage 320 g/ha, rated about 3 weeks after treatment
Protocol: as §2, with “POLCO: Polygonum convolvulus SETVI: Setaria viridis” for “ABUTH: Abutilon theophrasti ALOMY: Alopecurus myosuroides”

[5] = system: Pharbitis purpurea; assay: Post-emergence herbicidal activity against PHBPU; details: Ipomoea purpurea, 504 h, dosage 320 g/ha, rated about 3 weeks after treatment
Protocol: as §2, with “LOLRI: Lolium rigidum PHBPU: Pharbitis purpurea” for “ABUTH: Abutilon theophrasti ALOMY: Alopecurus myosuroides”

[6] = system: Polygonum convolvulus; assay: Post-emergence herbicidal activity against POLCO; details: Fallopia convolvulus, 504 h, dosage 320 g/ha, rated about 3 weeks after treatment
Protocol: as §2, with “POLCO: Polygonum convolvulus SETVI: Setaria viridis” for “ABUTH: Abutilon theophrasti ALOMY: Alopecurus myosuroides”

[7] = system: Viola tricolor; assay: Post-emergence herbicidal activity against VIOTR; details: Viola tricolor, 504 h, dosage 320 g/ha, rated about 3 weeks after treatment
Protocol: as §2, with “VIOTR: Viola tricolor” for “ABUTH: Abutilon theophrasti ALOMY: Alopecurus myosuroides”

[8] = system: Veronica persica; assay: Post-emergence herbicidal activity against VERPE; details: Veronica persica, 504 h, dosage 320 g/ha
Protocol: as §2, with “STEME: Stellaria media VERPE: Veronica persica” for “ABUTH: Abutilon theophrasti ALOMY: Alopecurus myosuroides”

[9] = Post-emergence treatment, summary over harmful plants; details: 504 h, application rate of 0.32 kg of active substance or less per hectare, read-out: herbicidal action, post-emergence treatment (very good herbicidal activity)
Protocol: 2. Post-Emergence Herbicidal Action and Crop Plant Compatibility
as §2, with “Seeds” for “ABUTH: Abutilon theophrasti ALOMY: Alopecurus myosuroides 2. Post-Emergence Herbicidal Action and Crop Plant Compatibility Seeds”
As shown by the results, compounds according to the invention such as, for example, the compounds No. I-35 and other compounds from the tables (for example I-28, I-38, I-01, I-19, I-36, I-29, I-32, I-11, I-12, I-37, I-06, I-09, I-33, I-34, I-13, I-04, I-26, I-21, I-30, I-05, I-03, I-20, I-27, I-14, I-10, I-23, I-07, I-25, I-02, I-08, I-24, I-41, I-42, I-43, I-44, I-46, I-49, I-54, I-55, I-56) have, when used for post-emergence treatment, very good herbicidal activity (80% to 100% herbicidal action) against harmful plants such as Abutilon theophrasti, Alopecurus myosuroides, Amaranthus retroflexus, Avena fatua, Echinochloa crus-galli, Hordeum murinum, Lolium rigidum, Pharbitis purpurea, Polygonum convolvulus, Setaria viridis, Stellaria media, Veronica persica and Viola tricolor at an application rate of 0.32 kg of active substance or less per hectare.

[10] = system: Amaranthus retroflexus; assay: Pre-emergence herbicidal activity against AMARE; details: Amaranthus retroflexus, 504 h, dosage 80 g/ha
From the text: as §1, with “AMARE: Amaranthus retroflexus AVEFA: Avena fatua” for “ABUTH: Abutilon theophrasti ALOMY: Alopecurus myosuroides”

[11] = system: Veronica persica; assay: Pre-emergence herbicidal activity against VERPE; details: Veronica persica, 504 h, dosage 80 g/ha
From the text: as §1, with “STEME: Stellaria media VERPE: Veronica persica” for “ABUTH: Abutilon theophrasti ALOMY: Alopecurus myosuroides”

[12] = system: Avena fatua; assay: Post-emergence herbicidal activity against AVEFA; details: Avena fatua, 504 h, dosage 320 g/ha, rated about 3 weeks after treatment
Protocol: as §2, with “AMARE: Amaranthus retroflexus AVEFA: Avena fatua” for “ABUTH: Abutilon theophrasti ALOMY: Alopecurus myosuroides”

[13] = system: Lolium rigidum; assay: Post-emergence herbicidal activity against LOLRI; details: Lolium rigidum, 504 h, dosage 320 g/ha, rated about 3 weeks after treatment
Protocol: as §2, with “LOLRI: Lolium rigidum PHBPU: Pharbitis purpurea” for “ABUTH: Abutilon theophrasti ALOMY: Alopecurus myosuroides”

[14] = system: Hordeum murinum; assay: Post-emergence herbicidal activity against HORMU; details: Hordeum murinum, 504 h, dosage 320 g/ha
Protocol: as §2, with “ECHCG: Echinochloa crus-galli HORMU: Hordeum murinum” for “ABUTH: Abutilon theophrasti ALOMY: Alopecurus myosuroides”

[15] = system: Stellaria media; assay: Pre-emergence herbicidal activity against STEME; details: Stellaria media, 504 h, dosage 80 g/ha
From the text: as §1, with “STEME: Stellaria media VERPE: Veronica persica” for “ABUTH: Abutilon theophrasti ALOMY: Alopecurus myosuroides”

[16] = system: Abutilon theophrasti; assay: Post-emergence herbicidal activity against ABUTH; details: Abutilon theophrasti, 504 h, dosage 320 g/ha, rated about 3 weeks after treatment
Protocol: as §2

[17] = system: Stellaria media; assay: Post-emergence herbicidal activity against STEME; details: Stellaria media, 504 h, dosage 320 g/ha, rated about 3 weeks after treatment
Protocol: as §2, with “STEME: Stellaria media VERPE: Veronica persica” for “ABUTH: Abutilon theophrasti ALOMY: Alopecurus myosuroides”

**Q.** For `COC(=O)[C@H]1C[C@@H](NC(=O)C2(OC)CC(c3cc(Cl)cc(Cl)c3)=NO2)CO1` (relative stereo) [I-02, methyl cis-4-[[3-(3,5-dichlorophenyl)-5-methoxy-4H-isoxazole-5-carbonyl]amino]tetrahydrofuran-2-carboxylate], which “Pre-emergence herbicidal activity against ABUTH in %” value [1] is on record?
**A.** 100%

**Q.** What about the pest or weed control at 320 g/ha [2] of the same compound?
**A.** 80%

**Q.** What about the pest or weed control at 320 g/ha [3] of the same compound?
**A.** 90%

**Q.** What about the pest or weed control at 320 g/ha [4] of the same compound?
**A.** 80%

**Q.** And the pest or weed control at 320 g/ha [5]?
**A.** 90%

**Q.** And the pest or weed control at 320 g/ha [6]?
**A.** 90%

**Q.** And the pest or weed control at 320 g/ha [7]?
**A.** 80%

**Q.** And the pest or weed control at 320 g/ha [8]?
**A.** 80%

**Q.** And the pest or weed control at 320 g/ha [9]?
**A.** 80 to 100%

**Q.** For `CCOC(=O)C1=C(NC(=O)C2(C)CC(c3cc(F)cc(F)c3)=NO2)COC1` (stereo not shown) [I-24, ethyl 4-[[3-(3,5-difluorophenyl)-5-methyl-4H-isoxazole-5-carbonyl]amino]-2,5-dihydrofuran-3-carboxylate], which pest or weed control at 80 g/ha [10] is on record?
**A.** 80%

**Q.** What about the pest or weed control at 80 g/ha [11] of the same compound?
**A.** 100%

**Q.** What about the pest or weed control at 320 g/ha [2] of the same compound?
**A.** 90%

**Q.** And the pest or weed control at 320 g/ha [12]?
**A.** 90%

**Q.** What about the pest or weed control at 320 g/ha [13] of the same compound?
**A.** 90%

**Q.** What about the pest or weed control at 320 g/ha [5] of the same compound?
**A.** 80%

**Q.** And the pest or weed control at 320 g/ha [6]?
**A.** 90%

**Q.** And the pest or weed control at 320 g/ha [14]?
**A.** 90%

**Q.** And the pest or weed control at 320 g/ha [9]?
**A.** 80 to 100%

**Q.** Which pest or weed control at 80 g/ha [15] does the source give for `COC(=O)C1=C(NC(=O)C2(C)CC(c3cc(F)cc(F)c3)=NO2)COC1` (stereo not shown) [I-25, methyl 4-[[3-(3,5-difluorophenyl)-5-methyl-4H-isoxazole-5-carbonyl]amino]-2,5-dihydrofuran-3-carboxylate] here?
**A.** 100%

**Q.** What about the pest or weed control at 80 g/ha [11] of the same compound?
**A.** 100%

**Q.** What about the pest or weed control at 320 g/ha [2] of the same compound?
**A.** 100%

**Q.** What about the pest or weed control at 320 g/ha [12] of the same compound?
**A.** 100%

**Q.** And the pest or weed control at 320 g/ha [16]?
**A.** 80%

**Q.** And the pest or weed control at 320 g/ha [5]?
**A.** 80%

**Q.** What about the pest or weed control at 320 g/ha [6] of the same compound?
**A.** 90%

**Q.** What about the pest or weed control at 320 g/ha [17] of the same compound?
**A.** 90%

**Q.** And the pest or weed control at 320 g/ha [8]?
**A.** 80%

**Q.** What about the pest or weed control at 320 g/ha [9] of the same compound?
**A.** 80 to 100%
